Tests used:
[1] = target: 5-hydroxytryptamine receptor 7 (Homo sapiens, UniProt P34969)
[2] = target: T1, 5-hydroxytryptamine receptor 1A (Homo sapiens, UniProt P08908)
T1 sequence (P08908 whole entry): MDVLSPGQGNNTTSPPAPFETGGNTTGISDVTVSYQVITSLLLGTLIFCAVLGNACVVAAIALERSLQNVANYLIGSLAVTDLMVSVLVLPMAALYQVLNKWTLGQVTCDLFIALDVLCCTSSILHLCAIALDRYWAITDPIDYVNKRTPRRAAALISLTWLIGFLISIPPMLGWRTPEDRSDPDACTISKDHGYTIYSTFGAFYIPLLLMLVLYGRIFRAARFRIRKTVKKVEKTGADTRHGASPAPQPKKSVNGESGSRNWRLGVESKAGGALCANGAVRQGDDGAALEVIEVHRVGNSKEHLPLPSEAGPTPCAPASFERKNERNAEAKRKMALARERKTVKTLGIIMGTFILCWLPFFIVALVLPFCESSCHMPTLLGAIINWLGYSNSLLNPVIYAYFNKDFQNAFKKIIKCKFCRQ

[3] = target: Sodium-dependent serotonin transporter (Homo sapiens, UniProt P31645); type: cell-based, HEK293
[4] = target: Voltage-gated inwardly rectifying potassium channel KCNH2 (Homo sapiens, UniProt Q12809)
in vitro [5] = conditions: human, liver microsomes
in vitro [6] = conditions: mouse, liver microsomes
hERG (KCNH2) = hERG (KCNH2) (Homo sapiens, UniProt Q12809); assay: in vitro; conditions: HEK293 cells that express hERG
hERG (KCNH2), sequence (Q12809 whole entry): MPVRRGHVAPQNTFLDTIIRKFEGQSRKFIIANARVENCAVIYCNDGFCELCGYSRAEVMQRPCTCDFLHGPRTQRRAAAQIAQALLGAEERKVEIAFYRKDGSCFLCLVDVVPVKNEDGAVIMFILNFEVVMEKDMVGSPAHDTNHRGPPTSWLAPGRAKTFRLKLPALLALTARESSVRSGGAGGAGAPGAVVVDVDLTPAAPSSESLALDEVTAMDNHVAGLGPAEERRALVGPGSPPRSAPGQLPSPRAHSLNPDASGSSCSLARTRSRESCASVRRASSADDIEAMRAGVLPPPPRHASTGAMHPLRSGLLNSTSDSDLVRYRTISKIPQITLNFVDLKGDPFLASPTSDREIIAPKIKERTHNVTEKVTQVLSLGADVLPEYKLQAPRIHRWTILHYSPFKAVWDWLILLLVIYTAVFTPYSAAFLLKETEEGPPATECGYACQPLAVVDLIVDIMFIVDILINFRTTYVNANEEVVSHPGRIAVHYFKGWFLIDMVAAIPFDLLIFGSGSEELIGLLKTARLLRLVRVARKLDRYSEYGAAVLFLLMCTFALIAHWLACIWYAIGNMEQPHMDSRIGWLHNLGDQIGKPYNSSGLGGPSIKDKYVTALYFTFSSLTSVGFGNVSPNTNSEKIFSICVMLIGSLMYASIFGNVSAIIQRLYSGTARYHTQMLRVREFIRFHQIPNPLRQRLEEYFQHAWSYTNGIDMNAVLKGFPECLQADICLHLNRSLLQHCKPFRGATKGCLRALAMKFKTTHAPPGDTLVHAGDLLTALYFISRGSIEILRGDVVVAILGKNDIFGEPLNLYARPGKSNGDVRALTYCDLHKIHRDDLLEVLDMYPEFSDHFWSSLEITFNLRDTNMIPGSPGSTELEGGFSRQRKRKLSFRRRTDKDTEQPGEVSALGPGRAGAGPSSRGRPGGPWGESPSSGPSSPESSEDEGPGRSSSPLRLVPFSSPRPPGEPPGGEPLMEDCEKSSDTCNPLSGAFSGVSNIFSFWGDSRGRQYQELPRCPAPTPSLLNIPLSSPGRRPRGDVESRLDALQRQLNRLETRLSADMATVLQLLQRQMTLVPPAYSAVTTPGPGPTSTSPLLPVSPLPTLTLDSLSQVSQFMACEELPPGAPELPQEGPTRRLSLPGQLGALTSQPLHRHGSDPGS

5-hydroxytryptamine receptor 7, sequence (P34969 whole entry): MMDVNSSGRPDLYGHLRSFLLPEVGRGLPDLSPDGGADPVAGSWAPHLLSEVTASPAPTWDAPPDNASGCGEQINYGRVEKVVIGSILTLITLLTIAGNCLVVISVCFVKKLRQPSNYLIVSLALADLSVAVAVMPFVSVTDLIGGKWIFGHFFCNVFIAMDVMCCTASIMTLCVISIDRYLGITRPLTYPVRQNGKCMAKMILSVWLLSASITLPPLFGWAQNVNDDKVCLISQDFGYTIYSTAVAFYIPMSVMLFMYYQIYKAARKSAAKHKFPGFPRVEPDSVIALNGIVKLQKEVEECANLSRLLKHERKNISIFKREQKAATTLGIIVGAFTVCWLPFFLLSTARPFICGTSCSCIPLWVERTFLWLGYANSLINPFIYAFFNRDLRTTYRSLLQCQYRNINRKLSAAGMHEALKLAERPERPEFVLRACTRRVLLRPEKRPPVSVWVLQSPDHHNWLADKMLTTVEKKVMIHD
Voltage-gated inwardly rectifying potassium channel KCNH2, sequence (Q12809 whole entry): as the sequence (Q12809 whole entry) above
Sodium-dependent serotonin transporter, sequence (P31645 whole entry): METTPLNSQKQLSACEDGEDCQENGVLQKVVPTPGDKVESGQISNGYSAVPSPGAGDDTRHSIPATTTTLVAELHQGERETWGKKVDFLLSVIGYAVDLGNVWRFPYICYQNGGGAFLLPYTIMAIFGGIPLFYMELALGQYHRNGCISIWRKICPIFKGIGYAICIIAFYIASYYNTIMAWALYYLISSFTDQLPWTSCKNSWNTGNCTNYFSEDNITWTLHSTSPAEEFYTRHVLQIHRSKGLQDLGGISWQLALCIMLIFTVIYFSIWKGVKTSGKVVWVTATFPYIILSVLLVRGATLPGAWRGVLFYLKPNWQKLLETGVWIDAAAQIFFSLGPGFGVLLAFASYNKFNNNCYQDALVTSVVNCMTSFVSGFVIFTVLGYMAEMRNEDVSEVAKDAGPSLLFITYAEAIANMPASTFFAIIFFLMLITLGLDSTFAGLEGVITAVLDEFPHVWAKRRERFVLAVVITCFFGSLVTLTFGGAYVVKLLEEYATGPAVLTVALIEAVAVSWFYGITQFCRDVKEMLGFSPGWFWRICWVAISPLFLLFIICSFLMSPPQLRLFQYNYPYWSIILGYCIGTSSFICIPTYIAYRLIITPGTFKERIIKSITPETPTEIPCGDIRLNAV

Compound `COc1ccccc1N1CCN(CCCCCC(=O)NC2CCCc3ccccc32)CC1` (centres undefined) has a Ki [1] of 8.6 nM and a Ki [2] of 6.64 nM.
Compound `CSc1ccccc1N1CCN(CCCCCC(=O)NC2CCCc3ccccc32)CC1` (centres undefined) has a Ki [1] of 52.7 nM and a Ki [2] of 0.22 nM.
With `CCOc1ccccc1N1CCN(CCCCCn2cnc3sc(C)c(C)c3c2=O)CC1` the Ki [1] was 1.03 nM and the Ki [2] was 2.99 nM.
Compound `Fc1ccc(C2CCN(CCCc3c[nH]c4ccc(F)cc34)CC2)c(-c2ccccc2)c1` has an IC50 [3] of 251 nM, a Ki [1] of 26.8 nM and a Ki [2] of 5.7 nM. It also gave an IC50 [4] of 160 nM and a microsomal CLint at 1 µM (in vitro [5]) of 27.8 µL/min/mg.
Work on `CSc1ccccc1N1CCN(CCCCc2c[nH]c3ccc(F)cc23)CC1` yielded a microsomal CLint at 1 µM (in vitro [6]) of 156 µL/min/mg, an inhibition at 1 µM (hERG (KCNH2)) of 82.7% and a microsomal CLint at 1 µM (in vitro [5]) of 27.8 µL/min/mg.
Work on `CSc1ccccc1C1CCN(CCCc2c[nH]c3ccc(F)cc23)CC1` yielded a microsomal CLint at 1 µM (in vitro [6]) of 62.3 µL/min/mg, an inhibition at 1 µM (hERG (KCNH2)) of 96.6% and a microsomal CLint at 1 µM (in vitro [5]) of 24.5 µL/min/mg.
Compound `Fc1ccc(C2=CCN(CCCc3c[nH]c4ccc(F)cc34)CC2)c(-c2ccccc2)c1` has a microsomal CLint at 1 µM (in vitro [6]) of 202 µL/min/mg, an inhibition at 1 µM (hERG (KCNH2)) of 82.6% and a microsomal CLint at 1 µM (in vitro [5]) of 22.1 µL/min/mg.
`CSc1ccccc1N1CCN(CCCCCc2c[nH]c3ccc(F)cc23)CC1` showed a microsomal CLint at 1 µM (in vitro [6]) of 83.2 µL/min/mg, an inhibition at 1 µM (hERG (KCNH2)) of 84.5% and a microsomal CLint at 1 µM (in vitro [5]) of 90.1 µL/min/mg.
With `CCSc1ccccc1N1CCN(CCCc2c[nH]c3ccc(F)cc23)CC1` the microsomal CLint at 1 µM (in vitro [6]) was 47.6 µL/min/mg, the inhibition at 1 µM (hERG (KCNH2)) was 90.1% and the microsomal CLint at 1 µM (in vitro [5]) was 39.5 µL/min/mg.
`NC(=O)c1ccc2[nH]cc(CCCN3CCC(c4ccc(F)cc4-c4ccccc4)CC3)c2c1` gave an IC50 [3] greater than 10000 nM and a Ki [2] of less than 0.04 nM.
`CCOc1ccccc1N1CCN(CCCc2c[nH]c3ccc(F)cc23)CC1` gave an IC50 [3] of 0.85 nM and an IC50 [4] of 160 nM.
`OC(CCN1CCC(c2ccc(F)cc2-c2ccccc2)CC1)c1c[nH]c2ccc(F)cc12` (centres undefined) gave an IC50 [4] of 530 nM.
Compound `COc1ccccc1N1CCN(CCCc2c[nH]c3ccc(F)cc23)CC1` has an IC50 [3] of 0.85 nM and an IC50 [4] of 310 nM.
Work on `CSc1ccccc1N1CCN(CCCc2c[nH]c3ccc(F)cc23)CC1` yielded an IC50 [3] of 1.9 nM and an IC50 [4] of 390 nM.
`CSc1ccccc1N1CCN(CCCc2c[nH]c3ccc(C#N)cc23)CC1` gave a microsomal CLint at 1 µM (in vitro [6]) of 208 µL/min/mg, an inhibition at 1 µM (hERG (KCNH2)) of 97.6% and a microsomal CLint at 1 µM (in vitro [5]) of 127 µL/min/mg.
With `COc1ccc2c(c1)[C@]13CCCC[C@@H]1[C@H](C2)N(C)CC3` [DEXTROMETHORPHAN] the microsomal CLint at 1 µM (in vitro [5]) was 28 µL/min/mg.

Reference: ChEMBL document CHEMBL5584220, “Design, synthesis, and biological evaluation of aralkyl piperazine and piperidine derivatives targeting SSRI/5-HT1A/5-HT7” (Bioorg Med Chem, 2024)
